Reference: ChEMBL document CHEMBL1759887, “Discovery of indole alkaloids with cannabinoid CB1 receptor antagonistic activity” (Bioorg Med Chem Lett, 2011)

biological target: Cannabinoid receptor 1 (Homo sapiens, UniProt P21554); experiment: Antagonist activity at CB1 receptor transfected in CHO cells expressing apoaequorin as a reporter for G-protein-coupled receptor-mediated calcium signaling by bioluminescence assay; assay type: functional, cell-based
Sequence (P21554 whole entry): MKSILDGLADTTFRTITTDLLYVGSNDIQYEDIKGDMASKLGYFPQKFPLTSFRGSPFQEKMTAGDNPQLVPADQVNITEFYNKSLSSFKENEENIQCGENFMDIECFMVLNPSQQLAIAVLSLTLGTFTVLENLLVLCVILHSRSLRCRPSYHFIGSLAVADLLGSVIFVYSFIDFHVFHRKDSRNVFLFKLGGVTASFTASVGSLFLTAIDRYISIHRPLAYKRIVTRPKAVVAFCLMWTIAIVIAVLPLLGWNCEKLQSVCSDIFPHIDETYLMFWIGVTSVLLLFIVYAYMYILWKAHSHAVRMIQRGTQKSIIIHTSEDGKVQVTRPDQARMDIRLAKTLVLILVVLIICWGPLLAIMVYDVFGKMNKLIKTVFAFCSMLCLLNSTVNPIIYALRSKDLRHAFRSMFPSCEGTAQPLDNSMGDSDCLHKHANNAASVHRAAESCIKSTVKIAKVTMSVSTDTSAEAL

SMILES	IC50 [nM]
CC[C@H]1C[C@@H]2C[C@@]3(C(=O)OC)c4[nH]c5ccc(OC)cc5c4[C@H]4O[C@@H]2N([C@@H]4O)[C@@H]13	141
CC=C1CN(C)C2Cc3c([nH]c4ccccc34)C(c3cc4[nH]c5c(c4cc3OC)CCN3CC4CC(CC)C3C5(C(=O)OC)C4)CC1C2C(=O)OC (stereo not drawn) [VOACAMINE]	41
CC[C@H]1C[C@@H]2C[C@@]3(C(=O)OC)c4[nH]c5ccc(OC)cc5c4[C@@H]4CN([C@@H]13)[C@H]2O4	199
